How the values were obtained:
Mena, Mena^INV = experiment: Mena and Mena^INV immunofluorescence in Control tumors from treated mice; format: in vivo, mouse; details: tissue sections of Control tumors from treated mice
Experimental: (§1) Taxol treatment induces increased Mena protein expression in vitro and in vivo. As high level of Mena or Mena^INV expression correlated with low response to Taxo, we hypothesized that Taxol treatment might affect Mena expression. […]. After 72 h of treatment with the drug, the expression level of Mena was 70% higher than in vehicle-treated cells.
Immunohistochemistry for Examples 16-22. Tumors dissected from NOD/SCID mice were fixed in 10% buffered formalin and embedded in paraffin. Tissue sections (5 μm thick) were deparaffinized followed by antigen retrieval using Citra Plus solution (Biogenex). After treatment with 3% H2O2, sections were blocked with serum, incubated with primary antibodies overnight at 4° C. and fluorescently labeled secondary antibodies at room temperature for 2 hours. Sections were stained using anti-MENA (1:500), biotinylated anti-MENA^INV (1:500), anti-CC3 (1:200), anti-Ki67 (1:200) and DAPI. Fluorochromes on secondary antibodies included AlexaFluor 488, 594 or 647 (Jackson Immunoresearch). Sections were mounted in Fluoromount mounting media and imaged at room temperature. […]
Paclitaxel treatment selects for high MENA expression in vitro and in vivo. […] First, endogenous MENA expression by Western Blot in 5 breast cancer cell lines that were exposed to 100 nM of paclitaxel or a vehicle control were analyzed (FIG. 33A).

microtubules (MT) = experiment: MT length image analysis; format: cell-based, human; details: 231-MENA^INV cells, 10 nM paclitaxel 24 hours
ERK, Akt = experiment: Western blot for pERK Y204, ERK, pAkt473 and Akt; format: cell-based, human
Experimental: (§2) Western blot. Cells were lysed in 25 mM Tris, 150 mM NaCl, 10% glycerol, 1% NP 40 and […] EDTA with a protease Mini-complete protease inhibitors (Roche) and a phosphatase inhibitor cocktail (PhosSTOP, Roche) at 4° C. for 20 minutes. Protein lysates were separated by SDS-PAGE, transferred to a nitrocellulose membrane and blocked with Odyssey Blocking Buffer (LiCor). Membranes were incubated with primary antibody overnight at 4° C. and Licor secondary antibodies at room temperature for 1 hour. Protein level intensity was measured with Image J.
The MAPK signaling cascade is among the key pathways known to interact with MTs. Both ERK1/2 interact with MTs; MT stabilization by paclitaxel increases ERK phosphorylation and, in turn, ERK pathway activation increases MT dynamics.

MDA-MB-231 cells = experiment: Proliferation assay (cell count) with combinations of paclitaxel and MEKi; format: cell-based, human; details: 231-MENA and 231-MENA^INV cells
[1] = system: MDA-MB-231 xenograft tumors; experiment: Xenograft tumor growth in NOD-SCID mice with chemotherapy treatment; format: in vivo, mouse; details: three doses Taxol/paclitaxel 10 mg/kg or two doses Doxorubicin 5 mg/kg; for growth of control tumors compared to vehicle: GFP (Control) tumors
Experimental: Mena or Mena^INV expression blocks Taxol efficacy on tumors in treated animals. Mice with xenograft tumors were generated by injection of MDA-MB-231 cells expressing GFP (Control), GFP-Mena (Mena) or GFP-Mena^INV (Mena^INV) into the mammary fat pads of NOD-SCID mice. […] Tumor size was measured before and after treatment. […] These in vivo findings are consistent with the results obtained in the in vitro data, and indicate that Men/Mena^INV promotes resistance to Taxol as judged by tumor growth.
Xenograft tumor generation and in vivo chemotherapy treatment. All animal experiments were approved by the MIT Division of Comparative Medicine. 2 million MDA-MB-231 cells expressing different MENA isoforms (in PBS and 20% collagen I) were injected into the 4th right mammary fat pad of six week-old female NOD-SCID mice (Taconic). When the tumors reached 1 cm in diameter, mice were treated every five days with either three doses of paclitaxel at 10 mg/kg in 1% DMSO, 3% PEG (MW 400), 1% Tween 80 in PBS by intra-peritoneal injection. In parallel, mice were treated with only in 1% DMSO, 3% PEG (MW 400), 1% Tween 80 in PBS as a vehicle control. One day after the last injection, tumors were measured and mice were use for intravital imaging and then sacrificed. Their tumors and lungs were fixed in 10% formalin overnight, their bone marrow were collected using PBS and cultured in DMEM with 10% fetal bovine serum. The number of tumor cell colonies in cultured bone morrow was counted 1 month after collection. The number of metastasis in each lobe of the lung were counted from lung H&E stained sections visualized by light microscopy and counted by two blinded individuals. Each tumor group contained 3-5 mice.
MENA isoform expression is associated with increased tumor growth in vivo during paclitaxel treatment. Whether MENA-associated paclitaxel resistance could also be observed in vivo was examined. Xenograft tumors were generated by injecting MDA-MB-231 cells expressing MENA isoforms into the mammary fat pads of NOD-SCID mice. Mice were treated with paclitaxel once tumors reached 1 cm in diameter (FIG. 30A).

Mena = Mena expression in cultured cells after taxane treatment (Western blot, FACS of GFP); format: cell-based, human
Experimental: as §1, §2
Paclitaxel treatment selects for high MENA expression in vitro and in vivo. The Examples so far indicate that increased MENA or MENA^INV expression levels are associated with reduced responses to paclitaxel. The effect of paclitaxel treatment on levels of MENA expression in cell populations in vitro and in vivo was examined. First, endogenous MENA expression by Western Blot in 5 breast cancer cell lines that were exposed to 100 nM of paclitaxel or a vehicle control were analyzed (FIG. 33A).

[2] = 72 hours of paclitaxel treatment, all three cell lines

Structure (SMILES): CC(=O)O[C@H]1C(=O)[C@@]2(C)[C@H]([C@H](OC(=O)c3ccccc3)[C@]3(O)C[C@H](OC(=O)[C@H](O)[C@@H](NC(=O)c4ccccc4)c4ccccc4)C(C)=C1C3(C)C)[C@]1(OC(C)=O)CO[C@@H]1C[C@@H]2O [paclitaxel]
- Mena and Mena^INV levels in Control tumors compared to vehicle (Mena, Mena^INV): significant increases in total MENA levels
- Mena and Mena^INV levels in Control tumors compared to vehicle (Mena, Mena^INV; listed as Taxol): increase in expression of both global Mena levels and the Mena^INV isoform
- MT length (microtubules (MT)): small but significant increase
- total ERK levels (ERK, Akt; 72 hours of paclitaxel treatment): unchanged
- pERK Y204 levels (ERK, Akt; 72 hours of paclitaxel treatment (10 or 100 nM)): 231-MENA and 231-MENA^INV cells had higher levels of pERK Y204 relative to 231-Control cells
- pAkt473 levels (ERK, Akt; [2]): decreased pAkt473 levels equally
- total Akt levels (ERK, Akt; [2]): without significantly changing
- concentrations needed to obtain high levels of cell death relative to 231-Control cells (MDA-MB-231 cells): higher concentrations of each drug were needed
- growth of control tumors compared to vehicle [1]: significantly decreased the growth of 231-Control tumors
- growth of control tumors compared to vehicle ([1]; listed as Taxol): significantly decreased growth of control tumors
- growth / response of Mena or Mena^INV tumors ([1]; Mena or Mena^INV expressing tumors): unaffected
- endogenous MENA expression by Western Blot (Mena; 5 breast cancer cell lines, 100 nM paclitaxel, 72 hours, vs vehicle): some cell lines (MDA-MB-231 and MDA-MB-175VII) showed increased MENA expression
- FACS analysis of GFP expression levels after taxane treatment (Mena; MDA-MB-231 populations expressing GFP, GFP-MENA or GFP-MENA^INV): selected for high-Mena^INV-GFP expressing cells
- expression level of Mena higher than in vehicle-treated cells (Mena; after 72 h of treatment): 70%

Reference: patent US20170168056A1, “METHODS AND COMPOSITIONS FOR DETECTING AND MODULATING CANCER CELLS” (Massachusetts Institute of Technology, priority 2015, published 2017)
